Test results: US8440168B2, “Image-guided therapy of myocardial disease: composition, manufacturing and applications” (The Board of Regents of the University of Texas System, priority 2008, dated 2013)

How the values were obtained:
[1] = tested on: breast tumor-bearing rats; assay: Planar scintigraphic imaging in breast tumor-bearing rats; format: in vivo, Female Fischer 344 rats
Description: (§1) To ascertain ^99mTc-EDA-ESM is a heart-specific agent, not tumor seeking agent, the inventors created a tumor model. Female Fischer 344 rats (125-175 g, n=5) were inoculated with breast cancer cells (13762NF, 10^6 cells/rat, s.c. in the hind leg). After 15-20 days and a tumor volume of […], the breast tumor-bearing rats were administered with 300 μCi of ^99mTc-EDA-ESM. Scintigraphic images, using a gamma camera equipped with low-energy, parallel-hole collimator, were obtained from 15 to 45 min. In separate studies, normal Female Fischer 344 rats ([…], n=5) were administered with 300 μCi of ^99mTc-EDA-ESM and scintigraphic images were obtained at 30-180 min. One rat was administered with 300 μCi of ^99mTc-EDA-ESM and SPECT/CT was performed at 45 min. […] In normal rats administered with ^99mTc-EDA-ESM (n=5), heart to muscle ([…]) count density uptake ratios were increased (2.7 to 5.1) at 30-180 min (FIG. 11).

normal rat = assay: SPECT/CT imaging of a normal rat; format: in vivo; settings: 300 μCi, SPECT/CT at 45 min
Description: as §1

[2] = breast tumor-bearing rats (13762NF), 300 μCi, planar scintigraphy 15 to 45 min

CC(C)NCC(O)COc1ccc(CCC(=O)[N]2CC[NH][Tc]23(=[O])[NH]CC[N]3C(=O)CCc2ccc(OCC(O)CNC(C)C)cc2)cc1 (centres unmarked) [^99mTc-EDA-ESM, ^99mTc-Ethylenediamine-esmolol]
heart uptake [1, 2]: high uptake
tumor visualization [1, 2]: could not be visualized well
cardiac region count/pixels ratio (line profile curve) ([1]; breast tumor-bearing rats, 300 μCi/rat, 15-45 minutes, compared to laterally located tissues): high cardiac region count/pixels ratio
Heart to muscle (H/M) count density uptake ratios ([1]; tumor-bearing rats (n=4), 300 μCi IV, sacrificed at 2 hrs, compared with heart/other tissue ratios): higher than other tissues
heart uptake (SPECT/CT) (normal rat): high heart uptake
